Assay results reported in ChEMBL document CHEMBL1201862, “PubChem BioAssay data set” (2004).
Values joined by “and” are separate entries in the source; they are usually repeats but may differ in a detail not shown here. Identical values can stand only once.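 These data come from cells grown in 96-well plates and exposed to compound for 48 hours at five concentrations. GI50: concentration for 50% inhibition of growth.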 Active and inactive are the calls of the source. Rule as the data show it: active = GI50 up to about 1.1 µM and inactive = higher.

How the values were obtained:
Assay in all cases: NCI tumour cell line growth inhibition, 48 h
[1] = tested on: HOP-92
[2] = tested on: MOLT-4
[3] = tested on: RPMI-8226
[4] = tested on: RXF 393
[5] = tested on: SR
[6] = tested on: TK-10
[7] = tested on: UO-31
[8] = tested on: 786-0
[9] = tested on: A498
[10] = tested on: A549
[11] = tested on: ACHN
[12] = tested on: CAKI-1
[13] = tested on: CCRF-CEM
[14] = tested on: COLO 205
[15] = tested on: DU-145
[16] = tested on: EKVX
[17] = tested on: HCC 2998
[18] = tested on: HCT-116
[19] = tested on: HCT-15
[20] = tested on: HL-60
[21] = tested on: HOP-62
[22] = tested on: HT-29
[23] = tested on: K562
[24] = tested on: KM12
[25] = tested on: LOX IMVI
[26] = tested on: M14
[27] = tested on: MCF7
[28] = tested on: MDA-MB-231
[29] = tested on: MDA-MB-435
[30] = tested on: MDA-N
[31] = tested on: NCI-H226
[32] = tested on: NCI-H23
[33] = tested on: NCI-H460
[34] = tested on: NCI/ADR-RES
[35] = tested on: OVCAR-3
[36] = tested on: OVCAR-4
[37] = tested on: OVCAR-5
[38] = tested on: OVCAR-8
[39] = tested on: PC-3
[40] = tested on: SF-268
[41] = tested on: SF-295
[42] = tested on: SF-539
[43] = tested on: SK-MEL-28
[44] = tested on: SK-MEL-5
[45] = tested on: SK-OV-3
[46] = tested on: SN12C
[47] = tested on: SNB-19
[48] = tested on: SNB-75
[49] = tested on: SW-620
[50] = tested on: T47D
[51] = tested on: U-251
[52] = tested on: UACC-257
[53] = tested on: UACC-62

**Q.** What does the source list for CC(=O)OCC1OC(n2c(=S)n(-c3ccc(C)cc3)c(=O)c3ccccc32)C(OC(C)=O)C(OC(C)=O)C1OC(C)=O (centres undefined)?
**A.** GI50 [1]: 31.6 µM (inactive) and 30.4 µM (inactive); GI50 [2]: 65.3 µM (inactive); GI50 [3]: 86.3 µM (inactive) and 49.1 µM (inactive); GI50 [4]: 83 µM (inactive) and 67 µM (inactive); GI50 [5]: 23.7 µM (inactive); GI50 [6]: 29 µM (inactive); GI50 [7]: 62.4 µM (inactive) and 58.1 µM (inactive)

**Q.** With O=C(N/C(=C\NC1=NCCS1)C(=O)N1CSC[C@@H]1C(=O)O)c1ccccc1 as the molecule, how does the GI50 [8] read?
**A.** 77.8 µM (inactive)

**Q.** And the GI50 [9]?
**A.** > 100 µM (inactive)

**Q.** What about the GI50 [10] of the same molecule?
**A.** > 100 µM (inactive)

**Q.** And the GI50 [11]?
**A.** > 100 µM (inactive)

**Q.** And the GI50 [12]?
**A.** > 100 µM (inactive)

**Q.** And the GI50 [13]?
**A.** > 100 µM (inactive)

**Q.** What about the GI50 [14] of the same molecule?
**A.** > 100 µM (inactive)

**Q.** And the GI50 [15]?
**A.** > 100 µM (inactive)

**Q.** And the GI50 [16]?
**A.** > 100 µM (inactive)

**Q.** What about the GI50 [17] of the same molecule?
**A.** > 100 µM (inactive)

**Q.** What about the GI50 [18] of the same molecule?
**A.** > 100 µM (inactive)

**Q.** And the GI50 [19]?
**A.** > 100 µM

**Q.** What about the GI50 [20] of the same molecule?
**A.** > 100 µM (inactive)

**Q.** And the GI50 [21]?
**A.** > 100 µM (inactive)

**Q.** And the GI50 [1]?
**A.** > 100 µM (inactive)

**Q.** What about the GI50 [22] of the same molecule?
**A.** > 100 µM (inactive)

**Q.** What about the GI50 [23] of the same molecule?
**A.** > 100 µM (inactive)

**Q.** What about the GI50 [24] of the same molecule?
**A.** > 100 µM (inactive)

**Q.** What about the GI50 [25] of the same molecule?
**A.** > 100 µM (inactive)

**Q.** And the GI50 [26]?
**A.** > 100 µM (inactive)

**Q.** What about the GI50 [27] of the same molecule?
**A.** > 100 µM (inactive)

**Q.** What about the GI50 [28] of the same molecule?
**A.** > 100 µM (inactive)

**Q.** What about the GI50 [29] of the same molecule?
**A.** > 100 µM (inactive)

**Q.** And the GI50 [30]?
**A.** > 100 µM (inactive)

**Q.** What about the GI50 [2] of the same molecule?
**A.** > 100 µM (inactive)

**Q.** What about the GI50 [31] of the same molecule?
**A.** > 100 µM (inactive)

**Q.** What about the GI50 [32] of the same molecule?
**A.** > 100 µM (inactive)

**Q.** And the GI50 [33]?
**A.** > 100 µM (inactive)

**Q.** What about the GI50 [34] of the same molecule?
**A.** > 100 µM (inactive)

**Q.** And the GI50 [35]?
**A.** > 100 µM (inactive)

**Q.** What about the GI50 [36] of the same molecule?
**A.** > 100 µM (inactive)

**Q.** And the GI50 [37]?
**A.** > 100 µM (inactive)

**Q.** What about the GI50 [38] of the same molecule?
**A.** > 100 µM (inactive)

**Q.** What about the GI50 [39] of the same molecule?
**A.** > 100 µM (inactive)

**Q.** And the GI50 [3]?
**A.** > 100 µM (inactive)

**Q.** And the GI50 [4]?
**A.** > 100 µM (inactive)

**Q.** What about the GI50 [40] of the same molecule?
**A.** > 100 µM (inactive)

**Q.** And the GI50 [41]?
**A.** > 100 µM (inactive)

**Q.** And the GI50 [42]?
**A.** > 100 µM (inactive)

**Q.** And the GI50 [43]?
**A.** > 100 µM (inactive)

**Q.** And the GI50 [44]?
**A.** > 100 µM (inactive)

**Q.** And the GI50 [45]?
**A.** > 100 µM (inactive)

**Q.** And the GI50 [46]?
**A.** > 100 µM (inactive)

**Q.** And the GI50 [47]?
**A.** > 100 µM (inactive)

**Q.** And the GI50 [48]?
**A.** > 100 µM (inactive)

**Q.** What about the GI50 [49] of the same molecule?
**A.** > 100 µM (inactive)

**Q.** What about the GI50 [50] of the same molecule?
**A.** > 100 µM (inactive)

**Q.** And the GI50 [6]?
**A.** > 100 µM (inactive)

**Q.** What about the GI50 [51] of the same molecule?
**A.** > 100 µM (inactive)

**Q.** And the GI50 [52]?
**A.** > 100 µM (inactive)

**Q.** What about the GI50 [53] of the same molecule?
**A.** > 100 µM (inactive)

**Q.** And the GI50 [7]?
**A.** > 100 µM (inactive)
